Experiments:
[1] = test system: Green peach aphids (Myzus Persicae Sulzer); test: bioactivity test against green peach aphid, airbrush foliar spray; assay type: in vivo; conditions: death rate after 48 hrs
Protocol: Compounds were dissolved in mixed solvent (acetone:methanol=1:1), and diluted to required concentration with water containing 0.1% of tween 80.
Diamond back moth, armyworm, peach aphid and carmine spider mite were used as targets and the method of spraying by airbrush was used for determination of insecticidal biassays.
Method: Filter papers were put in culture dishes (Diameter=6 cm), and water was dripped on filter papers for preserving moisture. Green peach aphids (Myzus Persicae Sulzer) were maintained on cabbage. Leaves (Diameter=3 cm) of approximately 15-30 aphids were put in the culture dishes. Bioactivity tests were used the method of Airbrush Foliar Spray, pressure=10 psi (0.7 kg/cm2), spray volume=0.5 mL. The studies were conducted at […] 25±1 C in incubator cabinets with 60±5% RH. Survey the survival aphids after 48 hrs and calculate the death rates.

[2] = test system: wheat powdery mildew; test: protectant activity in vivo against wheat powdery mildew
[3] = test system: corn rust; test: protectant activity in vivo against corn rust; conditions: 400 ppm
[4] = test system: cucumber downy mildew; test: protectant activity in vivo against cucumber downy mildew; conditions: for control effect against cucumber downy mildew (%): protectant activity

Cc1ncnc(NCCc2ccc(Oc3ncc(C(F)(F)F)cc3Cl)c(Cl)c2)c1Cl [Compound I-1414]
100%: control (test results against green peach aphid) ([1]; 100 ppm) | control (test results against green peach aphid) ([1]; 600 ppm) | protectant activity against wheat powdery mildew in vivo ([2]; 100 ppm) | protectant activity against wheat powdery mildew in vivo ([2]; 400 ppm)

Cc1ncnc(NCCc2ccc(Oc3ncc(C(F)(F)F)cc3Cl)cc2)c1Br [Compound I-1878]
100%: protectant activity against corn rust in vivo [3] | protectant activity against cucumber downy mildew in vivo ([4]; 400 ppm) | control (test results against green peach aphid) ([1]; 10 ppm) | control (test results against green peach aphid) ([1]; 100 ppm) | control (test results against green peach aphid) ([1]; 600 ppm)

Cc1ncnc(NCCc2ccc(Oc3cc(Cl)cc(Cl)c3)cc2)c1Cl [II-25]
100%: protectant activity against cucumber downy mildew in vivo ([4]; 400 ppm) | control (test results against green peach aphid) ([1]; 600 ppm) | protectant activity against wheat powdery mildew in vivo ([2]; 400 ppm)

Cc1ncnc(NCCc2ccc(Oc3c([N+](=O)[O-])cc(Cl)cc3C(F)(F)F)cc2)c1Cl [II-202]
100%: protectant activity against cucumber downy mildew in vivo ([4]; 400 ppm)

Cc1ncnc(NCCc2ccc(Oc3ccc([N+](=O)[O-])c(Cl)c3C)cc2)c1Cl [II-236]
100%: control effect against cucumber downy mildew (%) ([4]; 25 mg/L) | control effect against cucumber downy mildew (%) ([4]; 50 mg/L) | control effect against cucumber downy mildew (%) ([4]; 100 mg/L) | control effect against cucumber downy mildew (%) ([4]; 400 mg/L) | protectant activity against cucumber downy mildew in vivo ([4]; 25 ppm) | protectant activity against cucumber downy mildew in vivo ([4]; 50 ppm) | protectant activity against cucumber downy mildew in vivo ([4]; 100 ppm) | protectant activity against cucumber downy mildew in vivo ([4]; 400 ppm) | control (test results against green peach aphid) ([1]; 600 ppm)

O=[N+]([O-])c1cc(Cl)ccc1Oc1ccc(CCNc2ncnc(C(F)F)c2Cl)cc1 [II-9058]
100%: protectant activity against cucumber downy mildew in vivo ([4]; 400 ppm) | protectant activity against wheat powdery mildew in vivo ([2]; 400 ppm)

Cc1ncnc(NCCc2ccc(Oc3ccc(C(F)(F)F)cc3Cl)nc2)c1Cl [III-121]
100%: control effect against cucumber downy mildew (%) ([4]; 25 mg/L) | control effect against cucumber downy mildew (%) ([4]; 50 mg/L) | control effect against cucumber downy mildew (%) ([4]; 100 mg/L) | control effect against cucumber downy mildew (%) ([4]; 400 mg/L) | protectant activity against cucumber downy mildew in vivo ([4]; 25 ppm) | protectant activity against cucumber downy mildew in vivo ([4]; 50 ppm) | protectant activity against cucumber downy mildew in vivo ([4]; 100 ppm) | protectant activity against cucumber downy mildew in vivo ([4]; 400 ppm) | control (test results against green peach aphid) ([1]; 100 ppm) | control (test results against green peach aphid) ([1]; 600 ppm) | protectant activity against wheat powdery mildew in vivo ([2]; 100 ppm) | protectant activity against wheat powdery mildew in vivo ([2]; 400 ppm)

CCc1ncnc(NCCc2ccc(Oc3ccc(Cl)cc3C)nc2)c1Cl [III-290]
100%: protectant activity against cucumber downy mildew in vivo ([4]; 400 ppm)

Cc1nc(Cl)c(Cl)c(NCCc2ccc(Oc3ccccc3)nc2)n1 [III-2521]
100%: protectant activity against corn rust in vivo [3] | control effect against cucumber downy mildew (%) ([4]; 12.5 mg/L) | control effect against cucumber downy mildew (%) ([4]; 25 mg/L) | control effect against cucumber downy mildew (%) ([4]; 50 mg/L) | control effect against cucumber downy mildew (%) ([4]; 100 mg/L) | control effect against cucumber downy mildew (%) ([4]; 400 mg/L) | protectant activity against cucumber downy mildew in vivo ([4]; 12.5 ppm) | protectant activity against cucumber downy mildew in vivo ([4]; 25 ppm) | protectant activity against cucumber downy mildew in vivo ([4]; 50 ppm) | protectant activity against cucumber downy mildew in vivo ([4]; 100 ppm) | protectant activity against cucumber downy mildew in vivo ([4]; 400 ppm)

Cc1nc(Cl)c(Cl)c(NCCc2ccc(Oc3cccc(Cl)c3)nc2)n1 [III-2526]
100%: protectant activity against corn rust in vivo [3] | protectant activity against cucumber downy mildew in vivo ([4]; 25 ppm) | protectant activity against cucumber downy mildew in vivo ([4]; 50 ppm) | protectant activity against cucumber downy mildew in vivo ([4]; 100 ppm) | protectant activity against cucumber downy mildew in vivo ([4]; 400 ppm)

Cc1nc(Cl)c(Cl)c(NCCc2ccc(Oc3cccc(C(F)(F)F)c3)nc2)n1 [III-2541]
100%: protectant activity against cucumber downy mildew in vivo ([4]; 50 ppm) | protectant activity against cucumber downy mildew in vivo ([4]; 100 ppm) | protectant activity against cucumber downy mildew in vivo ([4]; 400 ppm) | protectant activity against wheat powdery mildew in vivo ([2]; 400 ppm)

Reference: patent publication US9770026B2, “Substituted pyrimidine compound and uses thereof” (Shenyang Sinochem Agrochemicals R&D Co., Ltd., priority 2012, dated 2017)
